From patent US11576947B2, “Oral composition and method” (Kunming Lanchie Dental Hospital, LTD, priority 2019, dated 2023)
Where two headings read alike, the source gives them in different places.

How the values were obtained:
[1] = hydrogen peroxide not stabilized, cited from earlier work
[2] = Stability test in aqueous system (Brilliant Blue color dissipation); type: physicochemical; parameters: key: ++++: no color dissipation; +++: slightly dissipation; ++: obvious dissipation; +: totally dissipated
[3] = Stability test in propylene glycol (Brilliant Blue color dissipation); type: physicochemical; parameters: key: ++++: no color dissipation; +++: slightly dissipation; ++: obvious dissipation; +: totally dissipated
[4] = System stability evaluation: compatibility of ingredients with peroxide source and the system; settings: for Effect on peroxide and system stability: summary of testing of Tables 2 and 3
[5] = water, 2.76% carbamide peroxide, 0.002% Brilliant Blue, compound amount 0.1%, 60 days, room temperature
[6] = propylene glycol, 2.76% carbamide peroxide, 0.002% Brilliant Blue, compound amount 0.1%, 60 days, room temperature
[7] = water, 2.76% carbamide peroxide, 0.002% Brilliant Blue, compound amount 15%, 60 days, room temperature
[8] = propylene glycol, 2.76% carbamide peroxide, 0.002% Brilliant Blue, compound amount 15%, 60 days, room temperature
[9] = water, 2.76% carbamide peroxide, 0.002% Brilliant Blue, compound amount 1%, 60 days, room temperature
[10] = propylene glycol, 2.76% carbamide peroxide, 0.002% Brilliant Blue, compound amount 1%, 60 days, room temperature
[11] = water, 2.76% carbamide peroxide, 0.002% Brilliant Blue, compound amount 2%, 60 days, room temperature
[12] = propylene glycol, 2.76% carbamide peroxide, 0.002% Brilliant Blue, compound amount 2%, 60 days, room temperature

[Al+3] [Al (III)]
Oxygen lost % (24 hr, 100 C.) ([1]; metal ion added 10 ppm): 2%

O=P([O-])([O-])OP(=O)([O-])[O-].[Ca+2].[Ca+2] [Calcium pyrophosphate]
Color (color fading grade) [2]: + | Color (color fading grade) [3]: +

N=C(NCCCCCCNC(=N)NC(=N)Nc1ccc(Cl)cc1)NC(=N)Nc1ccc(Cl)cc1 [Chlorhexydine, reference compound]
Color (color fading grade) [2, 5]: + | Color (color fading grade) [3, 6]: ++

[Cu+2] [Cu(II)]
Oxygen lost % (24 hr, 100 C.) ([1]; metal ion added 0.01 ppm): 24%

O=C([O-])CN(CCN(CC(=O)[O-])CC(=O)O)CC(=O)O.[Na+].[Na+] [Disodium EDTA]
Color (color fading grade) [2, 5]: +++ | Color (color fading grade) [3, 6]: +++

[Fe+3] [Fe(III)]
Oxygen lost % (24 hr, 100 C.) ([1]; metal ion added 10 ppm): 15%

OCC(O)CO [Glycerin]
Color (color fading grade) ([2]; water, 2.76% carbamide peroxide, 0.002% Brilliant Blue, compound amount 20%, 60 days, room temperature): + | Color (color fading grade) ([3]; propylene glycol, 2.76% carbamide peroxide, 0.002% Brilliant Blue, compound amount 20%, 60 days, room temperature): ++

CCCCCCCCCCCCCCCC[n+]1ccccc1.[Cl-] [Hexadecylpyridinium Chloride, Hexadecylpyridinium chloride, reference compound]
Color (color fading grade) [2, 5]: + | Color (color fading grade) [3, 6]: ++

CC1CCC(C(C)C)C(O)C1 (centres unmarked) [Menthol]
Compatibility with the system (cationic biocide and peroxide source) [4]: compatible | Color (color fading grade) [2, 5]: +++ | Color (color fading grade) [3, 6]: +++

CCCCCCCCCC[N+](C)(C)CCCCCCCCCC.O=C1CC[C@@H](C(=O)[O-])N1 [PODA, Proline, 5-oxo-, ion(1-), N-decyl-N,N-dimethyl-1-decanaminium (1:1)]
Color (color fading grade) [2, 5]: + | Color (color fading grade) [3, 6]: ++

O=C([O-])[O-].[Ca+2] [Precipitate calcium carbonate]
Compatibility with the system (cationic biocide and peroxide source) [4]: not compatible | Effect on peroxide and system stability [4]: activate the peroxide and make the system unstable | Color (color fading grade) [2, 7]: + | Color (color fading grade) [3, 8]: +

CCCCCCCCCCCCOS(=O)(=O)[O-].[Na+] [Sodium Dodecyl Sulfate]
Compatibility with the system (cationic biocide and peroxide source) [4]: incompatible | Effect on peroxide and system stability [4]: activate the peroxide and make the system unstable | Color (color fading grade) [2, 9]: + | Color (color fading grade) [3, 10]: +

O=P([O-])(O)OP(=O)([O-])O.[Na+].[Na+] [Sodium acid pyrophosphate]
Color (color fading grade) [2, 9]: ++ | Color (color fading grade) [3, 10]: ++

[F-].[Na+] [Sodium fluoride]
Color (color fading grade) [2, 5]: ++ | Color (color fading grade) [3, 6]: +++

O=C1NS(=O)(=O)c2ccccc21.[Na] [Sodium saccharin]
Compatibility with the system (cationic biocide and peroxide source) [4]: compatible | Color (color fading grade) [2]: ++ | Color (color fading grade) [3]: +++

O=P(O)(O)OP(=O)(O)OP(=O)(O)O [Sodium tripolyphosphate]
Compatibility with the system (cationic biocide and peroxide source) [4]: not compatible | Color (color fading grade) ([3]; propylene glycol, 2.76% carbamide peroxide, 0.002% Brilliant Blue, compound amount 5%, 60 days, room temperature): +

OC[C@@H](O)[C@@H](O)[C@H](O)[C@@H](O)CO [Sorbitol]
Color (color fading grade) ([2]; water, 2.76% carbamide peroxide, 0.002% Brilliant Blue, compound amount 60%, 60 days, room temperature): + | Color (color fading grade) ([3]; propylene glycol, 2.76% carbamide peroxide, 0.002% Brilliant Blue, compound amount 60%, 60 days, room temperature): +

OC[C@H]1O[C@H](O[C@]2(CCl)O[C@H](CCl)[C@@H](O)[C@@H]2O)[C@H](O)[C@@H](O)[C@H]1Cl [Sucralose]
Compatibility with the system (cationic biocide and peroxide source) [4]: compatible | Color (color fading grade) ([2]; water, 2.76% carbamide peroxide, 0.002% Brilliant Blue, compound amount 0.5%, 60 days, room temperature): ++ | Color (color fading grade) ([3]; propylene glycol, 2.76% carbamide peroxide, 0.002% Brilliant Blue, compound amount 0.5%, 60 days, room temperature): +++

O=P([O-])([O-])OP(=O)([O-])[O-].[Na+].[Na+].[Na+].[Na+] [Tetrasodium pyrophosphate]
Compatibility with the system (cationic biocide and peroxide source) [4]: not compatible | Color (color fading grade) [2]: + | Color (color fading grade) [3]: +

[Zn+2] [Zn(II)]
Oxygen lost % (24 hr, 100 C.) ([1]; metal ion added 10 ppm): 10%

Cocamidopropyl betaine
Color (color fading grade) [2, 11]: ++++ | Color (color fading grade) [3, 12]: ++++

Fatty Alcohol Polyoxyethylene Ether 9
Compatibility with the system (cationic biocide and peroxide source) [4]: compatible | Color (color fading grade) [2, 11]: +++ | Color (color fading grade) [3, 12]: +++

Lauryl glucoside
Color (color fading grade) [2, 11]: + | Color (color fading grade) [3, 12]: +

Natural calcium carbonate
Compatibility with the system (cationic biocide and peroxide source) [4]: not compatible | Color (color fading grade) [2, 7]: + | Color (color fading grade) [3, 8]: +

Sucrose fatty acid ester
Color (color fading grade) [2, 9]: + | Color (color fading grade) [3, 10]: +
